According to ChEMBL document CHEMBL2440076, “New triarylpyrazoles as broad-spectrum anticancer agents: design, synthesis, and biological evaluation” (Eur J Med Chem, 2013):

Key:
[1] = Growth inhibition of human Hs 578T cells after 48 hrs by sulforhodamine B assay; assay type: functional
NCI-H460 = assay: Growth inhibition of human NCI-H460 cells after 48 hrs by sulforhodamine B assay; assay type: functional; details: NCI-H460, 48 h
SK-MEL-2 = assay: Growth inhibition of human SK-MEL-2 cells assessed as cell growth at 10 uM after 48 hrs by sulforhodamine B assay; assay type: functional; details: SK-MEL-2, 48 h, read-out: Activity
IGROV-1 [2] = assay: Growth inhibition of human IGROV1 cells assessed as cell growth at 10 uM after 48 hrs by sulforhodamine B assay; assay type: functional; details: IGROV-1, 48 h, read-out: Activity
NCI-H522 = assay: Growth inhibition of human NCI-H522 cells after 48 hrs by sulforhodamine B assay; assay type: functional; details: NCI-H522, 48 h
MCF7 = assay: Growth inhibition of human MCF7 cells after 48 hrs by sulforhodamine B assay; assay type: functional; details: MCF7, 48 h
NCI-H226 = assay: Growth inhibition of human NCI-H226 cells after 48 hrs by sulforhodamine B assay; assay type: functional; details: NCI-H226, 48 h
LOX IMVI [3] = assay: Growth inhibition of human LOXIMVI cells assessed as cell growth at 10 uM after 48 hrs by sulforhodamine B assay; assay type: functional; details: read-out: Activity
SF-295 = assay: Growth inhibition of human SF295 cells after 48 hrs by sulforhodamine B assay; assay type: functional, cell-based; details: SF-295, 48 h
SF-268 [4] = assay: Growth inhibition of human SF268 cells assessed as cell growth at 10 uM after 48 hrs by sulforhodamine B assay; assay type: functional; details: SF-268, 48 h, read-out: Activity
NCI-H23 = assay: Growth inhibition of human NCI-H23 cells assessed as cell growth at 10 uM after 48 hrs by sulforhodamine B assay; assay type: functional; details: NCI-H23, 48 h, read-out: Activity
LOX IMVI [5] = assay: Growth inhibition of human LOXIMVI cells after 48 hrs by sulforhodamine B assay; assay type: functional
A498 = assay: Growth inhibition of human A498 cells after 48 hrs by sulforhodamine B assay; assay type: functional, cell-based; details: A498, 48 h
IGROV-1 [6] = assay: Growth inhibition of human IGROV1 cells after 48 hrs by sulforhodamine B assay; assay type: functional; details: IGROV-1, 48 h
UACC-62 = assay: Growth inhibition of human UACC62 cells assessed as cell growth at 10 uM after 48 hrs by sulforhodamine B assay; assay type: functional; details: UACC-62, 48 h, read-out: Activity
SN12C = assay: Growth inhibition of human SN12C cells after 48 hrs by sulforhodamine B assay; assay type: functional
MDA-MB-435 = assay: Growth inhibition of human MDA-MB-435 cells assessed as cell growth at 10 uM after 48 hrs by sulforhodamine B assay; assay type: functional; details: MDA-MB-435, 48 h, read-out: Activity
OVCAR-5 = assay: Growth inhibition of human OVCAR5 cells after 48 hrs by sulforhodamine B assay; assay type: functional; details: OVCAR-5, 48 h
SW-620 = assay: Growth inhibition of human SW620 cells assessed as cell growth at 10 uM after 48 hrs by sulforhodamine B assay; assay type: functional; details: SW-620, 48 h, read-out: Activity
ACHN = assay: Growth inhibition of human ACHN cells assessed as cell growth at 10 uM after 48 hrs by sulforhodamine B assay; assay type: functional; details: read-out: Activity
Malme-3M [7] = assay: Growth inhibition of human MALME-3M cells assessed as cell growth at 10 uM after 48 hrs by sulforhodamine B assay; assay type: functional; details: read-out: Activity
HOP-92 = assay: Growth inhibition of human HOP92 cells after 48 hrs by sulforhodamine B assay; assay type: functional, cell-based; details: HOP-92, 48 h
OVCAR-4 = assay: Growth inhibition of human OVCAR4 cells after 48 hrs by sulforhodamine B assay; assay type: functional; details: OVCAR-4, 48 h
786-0 = assay: Growth inhibition of human 786-0 cells assessed as cell growth at 10 uM after 48 hrs by sulforhodamine B assay; assay type: functional; details: 786-0, 48 h, read-out: Activity
SF-268 [8] = assay: Growth inhibition of human SF268 cells after 48 hrs by sulforhodamine B assay; assay type: functional; details: SF-268, 48 h
Malme-3M [9] = assay: Growth inhibition of human MALME-3M cells after 48 hrs by sulforhodamine B assay; assay type: functional
PC-3 = assay: Growth inhibition of human PC3 cells after 48 hrs by sulforhodamine B assay; assay type: functional, cell-based; details: PC-3, 48 h
SK-OV-3 = assay: Growth inhibition of human SKOV3 cells after 48 hrs by sulforhodamine B assay; assay type: functional; details: SK-OV-3, 48 h
UO-31 = assay: Growth inhibition of human UO31 cells assessed as cell growth at 10 uM after 48 hrs by sulforhodamine B assay; assay type: functional; details: UO-31, 48 h, read-out: Activity
SNB-75 = assay: Growth inhibition of human SNB75 cells after 48 hrs by sulforhodamine B assay; assay type: functional; details: SNB-75, 48 h
HCT-116 = assay: Growth inhibition of human HCT116 cells assessed as cell growth at 10 uM after 48 hrs by sulforhodamine B assay; assay type: functional; details: HCT-116, 48 h, read-out: Activity
CCRF-CEM = assay: Growth inhibition of human CCRF-CEM cells after 48 hrs by sulforhodamine B assay; assay type: functional
M14 = assay: Growth inhibition of human M14 cells after 48 hrs by sulforhodamine B assay; assay type: functional; details: M14, 48 h
HOP-62 = assay: Growth inhibition of human HOP62 cells after 48 hrs by sulforhodamine B assay; assay type: functional; details: HOP-62, 48 h
[10] = read-out: LC50 (the source's name)

Question: With `COc1cc(-c2nn(-c3cccc(NC(=O)c4ccc(N5CCOCC5)c(C(F)(F)F)c4)c3)cc2-c2ccncc2)ccc1Cl` as the compound, how does the GI50 [1] read?
Answer: 262 nM

Question: And the TGI [1]?
Answer: > 100000 nM

Question: What about the CC50 [1, 10] of the same compound?
Answer: > 100000 nM

Question: And the GI50 (NCI-H460)?
Answer: 336 nM

Question: What about the LC50 (NCI-H460) of the same compound?
Answer: > 100000 nM

Question: And the TGI (NCI-H460)?
Answer: > 100000 nM

Question: And the growth at 10 µM (SK-MEL-2)?
Answer: -8.84%

Question: What about the growth at 10 µM (IGROV-1 [2]) of the same compound?
Answer: 41.8%

Question: And the GI50 (NCI-H522)?
Answer: 107 nM

Question: What about the LC50 (concentration killing 50% of cells) (NCI-H522) of the same compound?
Answer: > 100000 nM

Question: And the TGI (NCI-H522)?
Answer: 3530 nM

Question: What about the GI50 (MCF7) of the same compound?
Answer: 285 nM

Question: And the LC50 (MCF7)?
Answer: > 100000 nM

Question: What about the TGI (MCF7) of the same compound?
Answer: > 1000 nM

Question: And the GI50 (NCI-H226)?
Answer: 427 nM

Question: And the TGI (NCI-H226)?
Answer: > 100000 nM

Question: What about the CC50 (NCI-H226; [10]) of the same compound?
Answer: > 100000 nM

Question: What about the growth at 10 µM (LOX IMVI [3]) of the same compound?
Answer: 13.7%

Question: What about the GI50 (SF-295) of the same compound?
Answer: 150 nM

Question: And the IC50 (SF-295)?
Answer: 150 nM

Question: What about the TGI (SF-295) of the same compound?
Answer: 1150 nM

Question: What about the CC50 (SF-295; [10]) of the same compound?
Answer: 6310 nM

Question: And the growth at 10 µM (SF-268 [4])?
Answer: 22.5%

Question: And the growth at 10 µM (NCI-H23)?
Answer: 15.6%

Question: And the GI50 (LOX IMVI [5])?
Answer: 371 nM

Question: And the LC50 (LOX IMVI [5])?
Answer: > 100000 nM

Question: And the TGI (LOX IMVI [5])?
Answer: 6200 nM

Question: And the GI50 (A498)?
Answer: 227 nM

Question: What about the IC50 (A498) of the same compound?
Answer: 230 nM

Question: What about the TGI (A498) of the same compound?
Answer: 1080 nM

Question: What about the CC50 (A498; [10]) of the same compound?
Answer: > 100000 nM

Question: What about the GI50 (IGROV-1 [6]) of the same compound?
Answer: 437 nM

Question: And the LC50 (concentration killing 50% of cells) (IGROV-1 [6])?
Answer: > 100000 nM

Question: And the TGI (IGROV-1 [6])?
Answer: 6790 nM

Question: What about the growth at 10 µM (UACC-62) of the same compound?
Answer: 8.35%

Question: What about the GI50 (SN12C) of the same compound?
Answer: 1090 nM

Question: And the TGI (SN12C)?
Answer: > 100000 nM

Question: And the CC50 (SN12C; [10])?
Answer: > 100000 nM

Question: And the growth at 10 µM (MDA-MB-435)?
Answer: -35.1%

Question: And the GI50 (OVCAR-5)?
Answer: 1450 nM

Question: What about the LC50 (concentration killing 50% of cells) (OVCAR-5) of the same compound?
Answer: > 100000 nM

Question: And the TGI (OVCAR-5)?
Answer: > 100000 nM

Question: And the growth at 10 µM (SW-620)?
Answer: 25.2%

Question: What about the growth at 10 µM (ACHN) of the same compound?
Answer: 21.3%

Question: And the growth at 10 µM (Malme-3M [7])?
Answer: 36.2%

Question: What about the GI50 (HOP-92) of the same compound?
Answer: 124 nM

Question: What about the IC50 (HOP-92) of the same compound?
Answer: 120 nM

Question: And the LC50 (HOP-92)?
Answer: > 100000 nM

Question: And the TGI (HOP-92)?
Answer: 813 nM

Question: And the GI50 (OVCAR-4)?
Answer: 957 nM

Question: What about the LC50 (concentration killing 50% of cells) (OVCAR-4) of the same compound?
Answer: > 100000 nM

Question: And the TGI (OVCAR-4)?
Answer: > 100000 nM

Question: What about the growth at 10 µM (786-0) of the same compound?
Answer: -3.26%

Question: What about the GI50 (SF-268 [8]) of the same compound?
Answer: 668 nM

Question: What about the TGI (SF-268 [8]) of the same compound?
Answer: > 100000 nM

Question: What about the CC50 (SF-268 [8]; [10]) of the same compound?
Answer: > 100000 nM

Question: And the GI50 (Malme-3M [9])?
Answer: 129 nM

Question: What about the LC50 (concentration killing 50% of starting cells) (Malme-3M [9]) of the same compound?
Answer: > 100000 nM

Question: What about the TGI (Malme-3M [9]) of the same compound?
Answer: 5100 nM

Question: What about the GI50 (PC-3) of the same compound?
Answer: 251 nM

Question: What about the IC50 (PC-3) of the same compound?
Answer: 250 nM

Question: And the TGI (PC-3)?
Answer: 14700 nM

Question: What about the CC50 (PC-3; [10]) of the same compound?
Answer: > 100000 nM

Question: What about the GI50 (SK-OV-3) of the same compound?
Answer: 340 nM

Question: And the TGI (SK-OV-3)?
Answer: 4730 nM

Question: And the CC50 (SK-OV-3; [10])?
Answer: > 100000 nM

Question: And the growth at 10 µM (UO-31)?
Answer: 24.6%

Question: What about the GI50 (SNB-75) of the same compound?
Answer: 212 nM

Question: What about the LC50 (lethal concentration, 50% net cell kill) (SNB-75) of the same compound?
Answer: > 100000 nM

Question: And the growth at 10 µM (HCT-116)?
Answer: 8.35%

Question: What about the GI50 (CCRF-CEM) of the same compound?
Answer: 236 nM

Question: What about the LC50 (CCRF-CEM) of the same compound?
Answer: > 100000 nM

Question: And the TGI (CCRF-CEM)?
Answer: > 100000 nM

Question: What about the GI50 (M14) of the same compound?
Answer: 430 nM

Question: And the LC50 (concentration killing 50% of cells) (M14)?
Answer: > 100000 nM

Question: And the TGI (M14)?
Answer: 16000 nM

Question: And the GI50 (HOP-62)?
Answer: 583 nM

Question: And the TGI (HOP-62)?
Answer: > 100000 nM

Question: What about the CC50 (HOP-62; [10]) of the same compound?
Answer: > 100000 nM
